Literature values as cited in patent US20110319467A1, “Absorption Enhancement of Statins and Omega Fatty Acids” (priority 2010, published 2011).

Details: single emulsifier

Polyoxyethylene sorbitan monooleate
HLB value: about 15
